{"source": "patent US11759480B2", "about": "“Compositions and methods for CAR T cell therapy” (ENDOCYTE, INC., priority 2017, dated 2023)", "key": {"MDA-MB-231 [1]": {"tested_on": "MDA-MB-231", "experiment": "FITC-CAR-T/EC17 therapy, MDA-MB-231 model (Example 28)", "assay_type": "in vivo, NSG mice", "settings": "500 nmol/kg weekly, 5 million FITC-CAR-T", "method": "(§1) To test whether FITC-CAR-T/EC17 therapy has anti-tumor activity in various FR+ tumor models, NSG mice were subcutaneously implanted with MDA-MB-231 (triple negative breast cancer cell line), OV90 (human ovarian cancer cell line), KB (human cervical adenocarcinoma cell line), SKOV-3 (human ovarian carcinoma cell line), or HEK293-FRa (HEK293 stably-transfected with human FRa). When tumor size reached […], one dose of EC17 at 500 nmol/kg of body weight was injected by tail vein followed with administering of 5 million FITC-CAR-T cells 4 hours later. 500 nmol/kg EC17 was dosed once every week after the initial EC17/CAR-T administration (about day 7), tumor size and body weights of mice were monitored three times per week. The EC17 dosing days were labeled as green dashed vertical lines in the graph. […] EC17 dose-dependent temporary body weight loss was also observed in all tumor bearing mice, indicating the activation of CAR-Ts is EC17-dependent in these mice."}, "MDA-MB-231 tumor": {"tested_on": "MDA-MB-231 tumor", "experiment": "CAR-T anti-tumor activity and toxicity at different EC17 dose levels (Example 27)", "assay_type": "in vivo", "method": "Immunodeficient NSG mice (Jackson Laboratory) were used to study CAR T cell anti-tumor activity and its toxicity in the presence of different EC17 dose levels. MDA-MB-231 tumor cells were used to establish subcutaneous solid tumor xenografts. When tumor volume of around 100-150 mm^3 was reached, various concentrations of EC17 were pre-injected 4 hours before i.v. injection of 10 million CAR-T cells. Various concentrations of EC17 were then administrated three times per week after the initial EC17 and CAR-T cell injections. The negative control group was injected with 500 nmol/kg EC17 (4 hour in advance) and […] unmodified T cells. 500 nmol/kg EC17 was then administrated three times per week after initial injection. Tumor size and body weight were measured to monitor the anti-tumor activity and the toxicity. […] By adjusting the EC17 dose level, CAR-T anti-tumor activity can be maintained while the resulting body weight loss (toxicity) can be reduced. In FIGS. 20A and 20B, EC17 is also referred to as “adaptor” or “bi-specific adaptor”."}, "OV90": {"tested_on": "OV90", "experiment": "FITC-CAR-T/EC17 therapy, OV90 model (Example 28)", "assay_type": "in vivo, NSG mice", "settings": "500 nmol/kg weekly, 5 million FITC-CAR-T", "method": "as §1"}, "MDA-MB-231 [2]": {"tested_on": "MDA-MB-231", "assay_type": "in vivo", "settings": "for mice died (or euthanized due to sCRS): Week 2", "method": "To evaluate whether pre-painting tumors with EC17 can reduce the therapy-related toxicity (e.g. sCRS), NSG mice were implanted with MDA-MB-231. Since larger tumor burden is correlated with more severe CRS, the treatment was started when tumor size reached […]. Mice were divided into two groups and predosed with 500 nmol/kg EC17 at different time points before CAR-T administration (FIGS. 26A and 26B). Group #1 was pre-dosed 4 hours before the administration of 8 million CAR-T cells, while group #2 was pre-dosed 24 hours before the administration of 8 million CAR-T cells. 500 nmol/kg EC17 was then i.v. dosed once per week (at days 1, 8, 15 etc.) post CAR-T administration (FIGS. 26D and 26E). […] No difference in anti-tumor activity was found in these two groups, and all surviving mice became tumor free eventually. Thus, toxicity was less in mice with 24 hour pre-painting than in mice with 4 hour pre-painting with EC17."}, "[3]": {"tested_on": "naïve mice without tumors", "experiment": "FITC-CAR-T proliferation, toxicity and cytokines in naïve mice (Example 37)", "assay_type": "in vivo", "method": "The evaluation of FITC-CAR-T proliferation and related toxicity in both naïve mice and mice bearing FR+ tumor xenografts was tested. To evaluate whether FITC-CAR-T proliferation in vivo is dependent on the co-existence of the bridge (e.g. EC17) and the tumor antigen (e.g. folate receptor), FITC-CAR-T proliferation in vivo was compared in naïve mice and mice bearing FR+ tumor xenografts, either with or without EC17. 5-8 million CAR-T cells (as indicated in FIGS. 42 and 43) were administered (i.v.) into naïve mice without tumors and mice bearing FR+ tumor xenografts (80-200 mm3). 500 nmol/kg EC17 was dosed 4 hours before and three times per week post CAR-T administration, if desired. Mice were monitored for body weight changes and CAR-T cell count in blood circulation; some mice were also euthanized weekly to evaluate organs. […] CAR-T cell count in blood samples was also compared to evaluate CAR-T proliferation. […] Since the enlargement of spleen size is another indicator for CAR-T proliferation in vivo, spleen size was also measured as shown in FIG. 43B. […]\nCytokine levels including IFN were measured using LEGENDplex human cytokine panel kits (BioLegend, San Diego, Calif.) according to the manufacturer's instructions. Plasma samples were diluted with Assay Buffer, and then mixed with Capture beads immobilized with the antibody directed to the analyzed cytokine. After 2 hours incubation at room temperature with shaking, biotinylated Detection antibody to the analyzed cytokine was added and incubated for one more hour at room temperature with shaking. Phycoerythrin (PE) labeled streptavidin was then added to bind with biotin on the Detection antibody, and FACS was used to read the signal of PE on the binding complex (capture antibody-cytokine-detection antibody). The intensity of PE is proportional to the level of analyzed cytokine. A series of cytokine solutions with known concentrations were measured at the same time and used as standards to quantitate the cytokine levels in the analyzed samples."}, "HEK293-FRa": {"tested_on": "HEK293-FRa", "experiment": "FITC-CAR-T/EC17 therapy, HEK293-FRa model (Example 28)", "assay_type": "in vivo, NSG mice", "settings": "500 nmol/kg weekly, 5 million FITC-CAR-T", "method": "as §1"}, "HOS-FRα": {"tested_on": "HOS-FRα", "experiment": "EC17-controlled anti-FITC CAR T-cell therapy in osteosarcoma model (Example 47)", "assay_type": "in vivo, NSG mice", "description": "HOS-FRα cells were implanted subcutaneously with 5×10^5 per animal in 6 animals.\n[…] One animal in the EC17-treated group received two more doses of EC17 at 50 and 100 nmol/kg on Days 40 and 42. All EC17 doses were given towards the end of the day (˜3-4 PM) to allow cytokine release syndrome (CRS) to develop overnight. Sodium fluorescein rescue was done as needed at 0.6 μmol/kg. Only the last EC17-dosed animal received sodium fluorescein on day 47."}, "SKOV-3": {"tested_on": "SKOV-3", "experiment": "FITC-CAR-T/EC17 therapy, SKOV-3 model (Example 28)", "assay_type": "in vivo, NSG mice", "settings": "500 nmol/kg weekly, 5 million FITC-CAR-T", "method": "as §1"}}, "note": "Like-named read-outs stand apart in the source and are kept apart here."}
{"smiles": "Nc1nc2ncc(CNc3ccc(C(=O)NC(CCC(=O)NCCNC(=S)Nc4ccc(-c5c6ccc(=O)cc-6oc6cc(O)ccc56)c(C(=O)O)c4)C(=O)O)cc3)nc2c(=O)[nH]1", "note": "(centres unmarked) [EC17, FITC-Folate]", "values": [{"measurement": "cures", "setting": "MDA-MB-231 [1]", "result": 100, "unit": "%"}, {"measurement": "toxicity (body weight loss)", "setting": "MDA-MB-231 tumor; 20 nmol/kg TIW", "result": "least toxicity"}, {"measurement": "toxicity (body weight loss)", "setting": "MDA-MB-231 tumor; 500 nmol/kg TIW", "result": "strongest toxicity"}, {"measurement": "tumor outcome", "setting": "MDA-MB-231 tumor; 500, 100 or 20 nmol/kg TIW, 10 million CAR-T", "result": "all eliminated"}, {"measurement": "cures", "setting": "OV90", "result": 50, "unit": "%"}, {"measurement": "stable disease", "setting": "OV90", "result": 50, "unit": "%"}, {"measurement": "mice survived over 5 weeks", "setting": "MDA-MB-231 [2]; 4-hour pre-painting", "result": 17, "unit": "%"}, {"measurement": "mice died (or euthanized due to sCRS)", "setting": "MDA-MB-231 [2]; 4-hour pre-painting", "result": 33, "unit": "%"}, {"measurement": "mice died", "setting": "MDA-MB-231 [2]; 4-hour pre-painting, Week 3", "result": 33, "unit": "%"}, {"measurement": "mice died", "setting": "MDA-MB-231 [2]; 4-hour pre-painting, week 4", "result": 17, "unit": "%"}, {"measurement": "mice died (or euthanized due to sCRS)", "setting": "MDA-MB-231 [2]; 24-hour pre-painting", "result": 17, "unit": "%"}, {"measurement": "mice survived over 5 weeks", "setting": "MDA-MB-231 [2]; NSG, mouse, in vivo", "result": 83, "unit": "%"}, {"measurement": "tumor outcome of surviving mice", "setting": "MDA-MB-231 [2]; both pre-painting groups", "result": "tumor free"}, {"measurement": "cytokine production (CAR-T activity)", "setting": "[3]; 500 nmol/kg three times per week", "result": "not active in naïve mice"}, {"measurement": "body weight", "setting": "[3]; 500 nmol/kg three times per week or no EC17", "result": "did not show any apparent body weight loss"}, {"measurement": "FITC-CAR-T proliferation", "setting": "[3]; 5 or 8 million FITC-CAR-T cells", "result": "did not proliferate in naïve mice"}, {"measurement": "tumor response", "setting": "HEK293-FRa", "result": "progressive disease"}, {"measurement": "tumor volume", "setting": "HOS-FRα; 500 nmol/kg SIW, 10.5 million CAR T-cells", "result": "started to shrink on Days 28 and 33"}, {"measurement": "CRS", "setting": "HOS-FRα; once tumors reached >200 mm^3", "result": "CRS was severe"}, {"measurement": "tumor response", "setting": "SKOV-3", "result": "stable disease"}]}
